Experimental findings from paper PMC4229968, “The Inhibition of the Components from Shengmai Injection towards UDP-Glucuronosyltransferase” (Evidence-based Complementary and Alternative Medicine : eCAM, 2014) are described below.

The series deals with T1, UGT1A1 (Homo sapiens, UniProt P22309).
T1 construct: purchased BD Gentest Corp. (Woburn, MA, USA); host or cells: baculovirus-infected insect cells
T1 sequence (P22309 26-533): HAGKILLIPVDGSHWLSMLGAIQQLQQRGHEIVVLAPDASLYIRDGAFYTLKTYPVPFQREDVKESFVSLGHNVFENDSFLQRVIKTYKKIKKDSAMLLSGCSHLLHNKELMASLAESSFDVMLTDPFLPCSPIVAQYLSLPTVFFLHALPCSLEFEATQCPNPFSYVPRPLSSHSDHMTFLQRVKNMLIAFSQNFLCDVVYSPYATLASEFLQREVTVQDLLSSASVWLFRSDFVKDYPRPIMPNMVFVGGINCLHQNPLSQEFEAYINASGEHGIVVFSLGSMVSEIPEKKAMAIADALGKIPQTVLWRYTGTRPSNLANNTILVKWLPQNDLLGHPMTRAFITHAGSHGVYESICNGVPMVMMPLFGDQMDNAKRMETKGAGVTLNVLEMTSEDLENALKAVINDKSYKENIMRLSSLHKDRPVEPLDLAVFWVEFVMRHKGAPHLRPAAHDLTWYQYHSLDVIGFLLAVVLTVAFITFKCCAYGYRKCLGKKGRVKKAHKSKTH
Description: Recombinant UGT1A1-catalyzed 4-MU glucuronidation inhibition. Conditions: pH 7.4, probe 4-methylumbelliferone (4-MU), UGT1A1, 100 μM of compound, 4-MU substrate, read-out: residual activity. It counts as in vitro ADME. From the text: 4-Methylumbelliferone (4-MU), 4-methylumbelliferone-β-D-glucuronide (4-MUG), Tris-HCl, 7-hydroxycoumarin, and uridine-5′-diphosphoglucuronic acid (UDPGA) (trisodium salt) were purchased from Sigma-Aldrich (St. Louis, MO). Recombinant human UGT isoforms (UGT1A1, UGT1A3, UGT1A4, UGT1A6, UGT1A7, UGT1A8, UGT1A9, UGT1A10, UGT2B4, UGT2B7, and UGT2B15) expressed in baculovirus-infected insect cells were obtained from BD Gentest Corp. (Woburn, MA, USA). Ophiopogonin D (OD), ophiopogonin D′ (OD′), methylophiopogonanone A (MA), methylophiopogonanone B (MB), and ruscorectal (RU) were purchased from Sichuan Weikeqi Biotechnology Company (Chengdu, Sichuan, China). The purity of these compounds was above 95%. All other reagents were of HPLC grade or of the highest grade commercially available.
4-MU, the nonspecific probe substrate for all the UGT isoforms except UGT1A4, was used in the present study to initially screen the inhibition potential of maidong's components towards UGT isoforms as previously reported. In brief, the incubation system (total volume = 200 μL) consisted of recombinant UGTs, 5 mM UDPGA, 5 mM MgCl2, 50 mM Tris-HCl (pH = 7.4), and 4-MU in the absence or presence of different concentrations of maidong's components. The compounds were dissolved in DMSO, and the final concentration of DMSO was below 0.5% (v/v). The used incubation time and protein concentration were previously determined to ensure the reaction rate within the linear range. The 4-MU concentration was equal to known K m or S 50 values for each UGT isoform. After 5 min preincubation at 37°C, the incubation reaction was initiated via adding UDPGA to the mixture system. The reactions were quenched by adding 100 μL acetonitrile with 7-hydroxycoumarin (100 μM) as internal standard. Centrifuged at 20000 ×g for 10 min, an aliquot of supernatant was transferred to an autoinjector vial for HPLC analysis. The HPLC system (Shimadzu, Kyoto, Japan) contained a SCL-10A system controller, two LC-10AT pumps, a SIL-10A autoinjector, and a SPD-10AVP UV detector. Chromatographic separation was carried out using a C18 column (4.6 × 200 mm, 5 μm, Kromasil) at a flow rate of 1 mL/min and UV detector at 316 nm. The mobile phase consisted of acetonitrile (A) and H2O containing 0.5% (v/v) formic acid (B). The following gradient condition was used: 0–15 min, 95–40% B; 15–20 min, 10% B; 20–30 min, 95% B.
As for `Cc1c(O)c(C)c2c(c1O)C(=O)[C@H](Cc1ccc3c(c1)OCO3)CO2` [MA, methylophiopogonanone A], the activity at 100 µM came out at 31.3 ± 1.3%.

Turning to `CC1CCC2(OC1)OC1CC3C4CC=C5CC(O)CC(O)C5(C)C4CCC3(C)C1C2C` (centres unmarked) [RU, ruscorectal], the activity at 100 µM is 41.5 ± 36.9%.

Consider `COc1ccc(C[C@@H]2COc3c(C)c(O)c(C)c(O)c3C2=O)cc1` [MB, methylophiopogonanone B], for which the activity at 100 µM was found to be 27.9 ± 11.1%.

On to `C[C@@H]1CC[C@@]2(OC1)O[C@H]1C[C@H]3[C@@H]4CC=C5C[C@@H](O[C@@H]6O[C@H](CO)[C@@H](O)[C@H](O[C@@H]7OC[C@@H](O)[C@H](O)[C@H]7O)[C@H]6O[C@@H]6O[C@@H](C)[C@H](O)[C@@H](O)[C@H]6O)CC[C@]5(C)[C@H]4CC[C@]3(C)[C@H]1[C@@H]2C` [OD′, ophiopogonin D′], for which the activity at 100 µM came to 81 ± 12.6%.

For the compound `C[C@@H]1CC[C@@]2(OC1)O[C@H]1C[C@H]3[C@@H]4CC=C5C[C@@H](O)C[C@@H](O[C@@H]6O[C@H](C)[C@H](O)[C@H](O[C@@H]7OC[C@@H](O)[C@H](O)[C@H]7O)[C@H]6O[C@@H]6O[C@@H](C)[C@H](O)[C@@H](O)[C@H]6O)[C@]5(C)[C@H]4CC[C@]3(C)[C@H]1[C@@H]2C` [OD, ophiopogonin D], the activity at 100 µM amounted to 77.1 ± 3.8%.
